Results reported in patent publication US6331555A, “Treatment of platelet derived growth factor related disorders such as cancers” (priority 1999, dated 2001).
Where “and” joins values, the source holds several entries; their conditions need not be identical. Equal entries are not always repeated. Where two headings read alike, the source gives them in different places.

Columns and labels:
[1] = C6 glioma SC xenograft in mice; assay type: in vivo; details: rat, in vivo, ip; for mortality at 240 h: 60 mg/kg (G24 at d10)
Protocol: (§1) Cell lines were grown in appropriate medium (see Appendix 1). Cells were harvested at or near confluency with 0.05% Trypsin-EDTA and pelleted at 450×g for 10 min. Pellets were resuspended in sterile PBS or media (without FBS) to a particular concentration and the cells were implanted into the hindflank of mice. Tumor growth was measured over 3 to 6 weeks using venier calipers. Tumor volumes were calculated as a product of length×width×height unless otherwise indicated. P values were calculated using the Students' t-test.
(§2) C6 and SKOV-3(T) cells were grown in culture, as described in "cell growth" above, and implanted into the hind flank of a female Balb/c nu/nu mouse at 3×10^6 cells (for C6 experiments), or 1×10^7 cells (for SKOV-3 experiments) in […] of PBS on Day 0. U87MG, U118MG or U373MG human glioblastoma cells (obtained from the ATCC), or A4312 were also implanted into athymic mice. […] Tumors were measured using venier calipers and tumor volume was calculated as a product of tumor length, width, and height.

C6 glioma cells = assay: C6 glioma SC xenograft in mice; assay type: in vivo
Protocol: as §1, §2

PDGF-R (U1242) = molecular target: T1, PDGF-R (U1242) (Homo sapiens, UniProt P09619); assay: U1242 kinase (PDGF-R activity); assay type: cell-based
T1 construct: U1242 (PDGF-β receptor); host or cells: U1242 MG glioma cells
T1 sequence (P09619 33-1106): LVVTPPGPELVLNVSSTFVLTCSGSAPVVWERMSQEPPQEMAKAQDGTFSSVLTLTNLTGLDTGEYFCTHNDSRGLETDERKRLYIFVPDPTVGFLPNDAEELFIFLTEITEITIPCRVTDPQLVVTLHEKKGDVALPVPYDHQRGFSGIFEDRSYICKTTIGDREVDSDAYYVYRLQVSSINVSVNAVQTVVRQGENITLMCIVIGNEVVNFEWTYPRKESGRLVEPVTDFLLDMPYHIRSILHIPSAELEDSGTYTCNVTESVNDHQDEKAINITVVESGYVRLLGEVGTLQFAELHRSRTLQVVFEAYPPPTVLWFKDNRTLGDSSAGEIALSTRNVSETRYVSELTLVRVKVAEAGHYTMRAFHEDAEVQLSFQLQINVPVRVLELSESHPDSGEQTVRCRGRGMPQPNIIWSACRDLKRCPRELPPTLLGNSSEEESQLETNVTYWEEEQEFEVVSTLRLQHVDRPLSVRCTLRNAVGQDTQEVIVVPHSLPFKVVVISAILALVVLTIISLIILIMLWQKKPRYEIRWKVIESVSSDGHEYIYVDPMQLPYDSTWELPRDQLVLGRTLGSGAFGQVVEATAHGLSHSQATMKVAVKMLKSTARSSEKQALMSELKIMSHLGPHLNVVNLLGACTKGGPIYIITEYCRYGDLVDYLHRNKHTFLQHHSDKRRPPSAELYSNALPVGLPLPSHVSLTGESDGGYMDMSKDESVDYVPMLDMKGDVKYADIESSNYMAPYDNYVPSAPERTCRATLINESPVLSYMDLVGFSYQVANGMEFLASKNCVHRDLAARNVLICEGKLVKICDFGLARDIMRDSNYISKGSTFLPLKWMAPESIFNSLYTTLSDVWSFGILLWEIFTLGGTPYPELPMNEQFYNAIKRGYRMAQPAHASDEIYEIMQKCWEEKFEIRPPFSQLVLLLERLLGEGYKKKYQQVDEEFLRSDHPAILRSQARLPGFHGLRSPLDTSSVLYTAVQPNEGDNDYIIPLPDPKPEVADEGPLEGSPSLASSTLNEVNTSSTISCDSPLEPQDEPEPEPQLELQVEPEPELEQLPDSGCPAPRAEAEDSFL
Protocol: (§3) For western blotting, cells were plated in 2 mL growth medium into 6-well dishes (500,000 cells per well) and allowed to attach overnight. […] The plates were then incubated overnight at 37° C., ambient CO2. […] After a 7 min incubation at room temperature with ligand, the plates were put on ice and washed three times with 1 mL ice-cold PBS plus 1 mM orthovanadate. Lysis was achieved by pipetting cells in 0.5 mL of buffer containing 50 mM Tris, pH 7.4, 10% glycerol, 1% NP-40, 2 mM EDTA, 1 mM sodium vanadate (Na3 VO4), 10 mM pyrophosphate, 1 mM PMSF, […]. A 300 μL aliquot of each lysate was immediately added to 100 μL 4×Laemmli sample buffer ([…] Tris pH 6.9, 20% glycerol, 7% SDS, 5 mM EDTA, 5% β-mercaptoethanol) containing phosphatase inhibitors, 2 mM Na3 VO4 and 10 mM pyrophosphate. Samples were boiled for 5 min, frozen in dry ice-ethanol, and stored at -80° C. […] The integrity of the protein-to-membrane transfer was determined by staining with 1% Ponceau S in 5% acetic acid for 5 min. After destaining in several distilled water rinses, the membrane was soaked overnight in blocking buffer containing 5% milk in Tris-buffered saline, 0.05% Tween 20. Phosphotyresine was detected by incubating the membrane (1 hr at room temperature) with an anti-phosphotyosine antiserum diluted in blocking buffer at 1:3000. […] The antibodies were visualized using ECL reagent from Amersham and by exposure to Fuji RX film.
(§4) For ELISA assays, cells were grown to 80-90% confluency in growth medium and seeded in 96-well tissue culture plates in 0.5% serum at 25,000 to 30,000 cells per well. After overnight incubation in 0.5% serum-containingmedium, cells were changed to serum-free medium and treated with test compound for 2 hr in a 5% CO2, 37° C. incubator. […] Lysates were incubated with shaking for 1 hr at room temperature. The plates were washed with TBST four times and then incubated with polyclonol anti-phosphotyrosine antibody at room temperature for 30 min. Excess anti-phosphotyrosine antibody was removed by rinsing the plate with TBST four times. Goat anti-rabbit IgG antibody was added to the ELISA plate for 30 min at room temperature followed by rinsing with TBST four more times.
PDGF-R activity, C6 SRB, and in vivo efficacy were measured using the procedures described in the appendices above.

C6 cells = assay: C6 SRB growth assay; assay type: cell-based, rat; details: for IC50: read-out: C6 SRB IC50
FLK-1 = molecular target: T2, FLK-1 (Mus musculus, UniProt P35918); assay: Receptor tyrosine kinase inhibition, FLK-1; assay type: cell-based; details: read-out: FLK-1 IC50
T2 construct: expressed in transfected cells; host or cells: NIH3T3 mouse fibroblasts, retroviral vector
T2 sequence (P35918 20-1345): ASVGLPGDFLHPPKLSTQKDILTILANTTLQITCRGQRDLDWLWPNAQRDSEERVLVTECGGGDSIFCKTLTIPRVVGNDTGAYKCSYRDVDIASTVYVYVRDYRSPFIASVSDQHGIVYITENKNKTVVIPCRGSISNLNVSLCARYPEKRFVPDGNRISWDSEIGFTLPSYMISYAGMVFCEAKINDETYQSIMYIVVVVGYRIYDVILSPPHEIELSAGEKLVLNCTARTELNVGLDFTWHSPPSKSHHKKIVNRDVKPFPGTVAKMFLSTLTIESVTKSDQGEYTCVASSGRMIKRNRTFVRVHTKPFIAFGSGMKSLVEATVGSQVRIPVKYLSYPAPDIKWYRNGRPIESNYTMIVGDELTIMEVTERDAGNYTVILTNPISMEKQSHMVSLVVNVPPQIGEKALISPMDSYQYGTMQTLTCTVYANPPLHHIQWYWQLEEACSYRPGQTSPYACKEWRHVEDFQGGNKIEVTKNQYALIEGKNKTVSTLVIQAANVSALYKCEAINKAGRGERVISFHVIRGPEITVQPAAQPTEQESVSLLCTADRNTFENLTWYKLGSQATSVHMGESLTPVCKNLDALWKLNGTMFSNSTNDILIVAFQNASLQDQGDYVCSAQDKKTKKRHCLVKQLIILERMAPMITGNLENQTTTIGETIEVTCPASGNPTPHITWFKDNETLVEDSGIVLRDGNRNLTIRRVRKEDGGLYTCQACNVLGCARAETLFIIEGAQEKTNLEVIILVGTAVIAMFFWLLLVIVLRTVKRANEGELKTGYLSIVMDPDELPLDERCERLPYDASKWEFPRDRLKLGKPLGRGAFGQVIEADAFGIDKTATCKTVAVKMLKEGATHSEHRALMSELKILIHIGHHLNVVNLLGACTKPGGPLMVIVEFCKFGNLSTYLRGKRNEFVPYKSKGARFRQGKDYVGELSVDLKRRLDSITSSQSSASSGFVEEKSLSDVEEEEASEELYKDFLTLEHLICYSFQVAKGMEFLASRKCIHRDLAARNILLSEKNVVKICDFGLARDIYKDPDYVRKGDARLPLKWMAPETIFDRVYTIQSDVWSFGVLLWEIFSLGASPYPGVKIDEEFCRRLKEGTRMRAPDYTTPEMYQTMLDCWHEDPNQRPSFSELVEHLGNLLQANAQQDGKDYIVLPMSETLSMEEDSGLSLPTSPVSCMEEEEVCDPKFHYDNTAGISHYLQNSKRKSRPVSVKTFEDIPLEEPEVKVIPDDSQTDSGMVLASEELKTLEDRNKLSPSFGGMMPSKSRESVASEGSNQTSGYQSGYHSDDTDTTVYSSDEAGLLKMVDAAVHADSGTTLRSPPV
Protocol: (§5) For western blotting, cells were plated in 2 mL growth medium into 6-well dishes (500,000 cells per well) and allowed to attach overnight. The medium was replaced with 2 mL MCDB 105 (UCSF Cell Culture Facility) supplemented with 1% FBS. The plates were then incubated overnight at 37° C., ambient CO2. […] After a 7 min incubation at room temperature with ligand, the plates were put on ice and washed three times with 1 mL ice-cold PBS plus 1 mM orthovanadate. Lysis was achieved by pipetting cells in 0.5 mL of buffer containing 50 mM Tris, pH 7.4, 10% glycerol, 1% NP-40, 2 mM EDTA, 1 mM sodium vanadate (Na3 VO4), 10 mM pyrophosphate, 1 mM PMSF, […]. A 300 μL aliquot of each lysate was immediately added to 100 μL 4×Laemmli sample buffer ([…] Tris pH 6.9, 20% glycerol, 7% SDS, 5 mM EDTA, 5% β-mercaptoethanol) containing phosphatase inhibitors, 2 mM Na3 VO4 and 10 mM pyrophosphate. Samples were boiled for 5 min, frozen in dry ice-ethanol, and stored at -80° C. Proteins were resolved by SDS-PAGE (Bio-Rad Miniprotean II) and transferred to nitrocellulose membrane (Schleicher & Schuell) at 120 volts for 1 hr at room temperature in buffer containing 25 mM Tris pH 8.3, 20% methanol, 0.2 M glycine, 0.1% SDS. The integrity of the protein-to-membrane transfer was determined by staining with 1% Ponceau S in 5% acetic acid for 5 min. After destaining in several distilled water rinses, the membrane was soaked overnight in blocking buffer containing 5% milk in Tris-buffered saline, 0.05% Tween 20. Phosphotyresine was detected by incubating the membrane (1 hr at room temperature) with an anti-phosphotyosine antiserum diluted in blocking buffer at 1:3000. For C6 cells, PDGF-β receptor content in the lysates was confirmed in duplicate sample lanes by western blotting using an antibody specific for PDGF-β receptor (UBI). The antibodies were visualized using ECL reagent from Amersham and by exposure to Fuji RX film.
(§6) For ELISA assays, cells were grown to 80-90% confluency in growth medium and seeded in 96-well tissue culture plates in 0.5% serum at 25,000 to 30,000 cells per well. After overnight incubation in 0.5% serum-containingmedium, cells were changed to serum-free medium and treated with test compound for 2 hr in a 5% CO2, 37° C. incubator. Cells were then stimulated with ligand for 5-10 min followed by lysis with HNTG (20 mM Hepes, 150 mM NaCl, 10% glycerol, 5 mM EDTA, 5 mM Na3 VO4 0.2% Triton X-100, and 2 mM NaPyr). Cell lysates (0.5 mg/well in PBS) were transferred to ELISA plates previously coated with receptor-specific antibody and which had been blocked with 5% milk in TBST (50 mM Tris-HCl pH 7.2, 150 mM NaCl and 0.1% Triton X-100) at room temperature for 30 min. Lysates were incubated with shaking for 1 hr at room temperature. The plates were washed with TBST four times and then incubated with polyclonol anti-phosphotyrosine antibody at room temperature for 30 min. Excess anti-phosphotyrosine antibody was removed by rinsing the plate with TBST four times. Goat anti-rabbit IgG antibody was added to the ELISA plate for 30 min at room temperature followed by rinsing with TBST four more times.
(§7) The ability of different compound to inhibit different receptor tyrosine kinases was tested.

PDGFR [2] = assay: Receptor tyrosine kinase inhibition, PDGFR; assay type: cell-based; details: W = done in Western assay; read-out: PDGFR IC50 (W)
Protocol: as §3, §4, §7

LD10 = details: in vivo
PDGFR [3] = molecular target: PDGFR (Homo sapiens, UniProt P09619); assay: Receptor tyrosine kinase inhibition, PDGFR; assay type: cell-based; parameters: U1242 (PDGF-β receptor); host or cells: U1242 glioma cells (ELISA); details: read-out: PDGFR IC50
PDGFR (Homo sapiens, UniProt P09619), sequence (P09619 33-1106): as the sequence (P09619 33-1106) above
Protocol: as §3, §4, §7

HER2 = assay: Receptor tyrosine kinase inhibition, HER2; assay type: cell-based; details: read-out: HER2 IC50
Protocol: as §5, §6, §7

EGFR = molecular target: T3, EGFR (Homo sapiens, UniProt P00533); assay: Receptor tyrosine kinase inhibition, EGFR; assay type: cell-based; details: read-out: EGFR ID50
T3 construct: expressed in transfected cells; host or cells: NIH3T3 mouse fibroblasts, retroviral vector
T3 sequence (P00533 25-1210): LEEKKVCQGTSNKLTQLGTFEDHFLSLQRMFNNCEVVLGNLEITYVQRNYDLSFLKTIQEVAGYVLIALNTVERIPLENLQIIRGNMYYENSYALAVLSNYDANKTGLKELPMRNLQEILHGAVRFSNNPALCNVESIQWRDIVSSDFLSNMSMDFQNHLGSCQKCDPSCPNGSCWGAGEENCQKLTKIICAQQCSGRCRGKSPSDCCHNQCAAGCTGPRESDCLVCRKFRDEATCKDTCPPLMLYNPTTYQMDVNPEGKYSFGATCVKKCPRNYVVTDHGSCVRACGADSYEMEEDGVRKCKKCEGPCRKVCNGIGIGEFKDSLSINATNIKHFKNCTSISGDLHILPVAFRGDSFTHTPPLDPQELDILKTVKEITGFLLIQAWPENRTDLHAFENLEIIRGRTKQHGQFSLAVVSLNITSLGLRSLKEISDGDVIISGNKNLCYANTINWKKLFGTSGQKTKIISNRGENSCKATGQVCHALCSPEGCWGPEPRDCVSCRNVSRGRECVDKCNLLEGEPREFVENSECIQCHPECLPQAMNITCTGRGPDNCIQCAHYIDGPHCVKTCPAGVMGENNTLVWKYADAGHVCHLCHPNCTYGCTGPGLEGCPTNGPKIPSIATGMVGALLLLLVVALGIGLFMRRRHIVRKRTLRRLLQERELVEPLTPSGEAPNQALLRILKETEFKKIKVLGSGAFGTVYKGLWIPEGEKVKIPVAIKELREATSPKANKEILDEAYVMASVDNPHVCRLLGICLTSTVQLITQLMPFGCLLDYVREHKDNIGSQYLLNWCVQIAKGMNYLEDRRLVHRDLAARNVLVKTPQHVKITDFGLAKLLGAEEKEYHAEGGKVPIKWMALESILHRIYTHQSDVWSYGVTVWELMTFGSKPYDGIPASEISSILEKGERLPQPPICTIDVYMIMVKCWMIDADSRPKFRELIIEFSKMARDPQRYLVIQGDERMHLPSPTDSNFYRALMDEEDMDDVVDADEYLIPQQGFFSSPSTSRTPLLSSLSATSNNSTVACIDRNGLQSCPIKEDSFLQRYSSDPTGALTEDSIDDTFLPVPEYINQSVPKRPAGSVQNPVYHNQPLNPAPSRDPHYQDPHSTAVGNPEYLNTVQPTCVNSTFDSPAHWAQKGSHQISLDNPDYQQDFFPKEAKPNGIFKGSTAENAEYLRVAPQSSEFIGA
Protocol: as §5, §6, §7

[4] = W = done in Western assay, read-out: U1242 KINASE IC50 (W)
[5] = 40 mg/kg (J10 at d18, G24 at d15)
[6] = Rattus norvegicus, C6 glioma, sc, at 40 mg/kg, read-out: C6 in vivo EFFICACY

Row | IC50 (FLK-1) [µM] | IC50 (PDGFR [3]) [µM] | IC50 (HER2) [µM] | IC50 (EGFR) [µM] | SMILES | IC50 (PDGF-R (U1242); read-out: U1242 KINASE IC50) | IC50 (C6 cells; Rattus norvegicus, C6) [µM] | LD10 (LD10) [mg/kg] | also measured
1 | – | – | – | – | Cc1noc(C)c1C(=O)Nc1ccc(C(F)(F)F)cc1 [Compound A13, N-trifluoromethlyphenyl 3,5-dimethylisoxazole-4-carboxamide] | – | > 25 | > 200 | inhibition at 25 µM (C6 cells; Rattus norvegicus, C6, at 25 μM): ~30%
2 | – | – | – | – | COc1cc(C=C(C#N)C(=O)NCCCc2ccccc2)cc(I)c1O [Compound P16] | – | 17 | > 400 | mortality at 240 h [1]: 0%; C6 in vivo EFFICACY (C6 glioma cells; at 60 mg/kg): no effect
3 | 10 | 23 | 34 | < 0.8 | Cc1cc2ncc(Nc3cccc(I)c3)nc2cc1C [Compound G29] | 23.2 µM | > 13 | – | –
4 | > 50 | 0.9 | > 50 | > 50 | Cc1cc2nc(C(=O)O)c(-c3ccccc3)nc2cc1C [Compound G25] | 1 µM | 50 | – | –
5 | – | – | – | – | CC1c2nc3ccccc3c(=O)n2C(c2ccc(O)cc2)N1Cc1ccccc1 (stereo not drawn) [Compound H13] | > 50 µM | 20 | > 400 | mortality [1, 5]: 0%; mortality at 192 h ([1]; 100 mg/kg (E15 at d8)): 0%; inhibition in vivo at 40 mg/kg (C6 glioma cells; [6]): 0%; inhibition in vivo at 100 mg/kg (C6 glioma cells; Rattus norvegicus, C6 glioma, sc, at 100 mg/kg, read-out: C6 in vivo EFFICACY): 41%; IC50 (C6 cells): 10.5 µM
6 | – | – | – | – | COc1cc2ncnc(N3CCc4ccccc43)c2cc1OC [Compound P17] | – | 12 | > 100 | –
7 | > 25 | 3 | > 50 | > 100 | N#CCS(=O)(=O)C(C#N)=Cc1cc(O)c(O)c(Br)c1 [Compound J11] | 3.1 µM | 14 | – | –
8 | > 50 | 34 | > 50 | > 50 | CN(C)CCn1cc(C=C(C#N)c2[nH]nc(N)c2C#N)c2ccccc21 [Compound D18] | – | – | – | –
9 | > 50 | 14 | > 50 | > 50 | N#CC(=Cc1c[nH]c2ccccc12)c1c(C#N)c(N)nn1-c1ccccc1 [Compound D20] | – | – | – | –

Row | SMILES | IC50 (FLK-1) [µM] | IC50 (PDGFR [3]) [µM] | IC50 (HER2) [µM] | IC50 (EGFR) [µM] | IC50 (PDGF-R (U1242); read-out: U1242 KINASE IC50) | IC50 (C6 cells; Rattus norvegicus, C6) [µM] | LD10 (LD10) [mg/kg] | also measured
10 | CC1c2nc3ccccc3c(=O)n2C(c2ccc(O)c(O)c2)N1Cc1ccccc1 (stereo not drawn) [Compound H10] | > 50 | – | – | – | > 50 µM | 13 | 75 | mortality at 408 h ([1]; 30 mg/kg, at d17): 14.3%; inhibition in vivo at 30 mg/kg (C6 glioma cells; Rattus norvegicus, C6 glioma, sc, at 30 mg/kg, read-out: C6 in vivo EFFICACY): 52%; IC50 (PDGF-R (U1242); [4]): 25 µM; IC50 (PDGFR [2]): 25 µM
11 | Cc1cc2nc(-c3ccccc3)c(-c3ccc(O)c(O)c3)nc2cc1C [Compound G24] | 9.3 | 5 | > 50 | > 100 | 0.6 µM and 5 µM | – | > 200 | mortality ([1]; 20 mg/kg): 0%; mortality [1, 5]: 12.5%; mortality at 240 h [1]: 100%; C6 in vivo EFFICACY (C6 glioma cells; at 20 mg/kg): no effect; C6 in vivo EFFICACY (C6 glioma cells; at 40 mg/kg): no effect; C6 in vivo EFFICACY (C6 glioma cells; at 60 mg/kg): no effect
12 | N#CC(=Cc1cc(O)c(O)c(Br)c1)S(=O)(=O)C(C#N)=Cc1cc(O)c(O)c(Br)c1 [Compound J10] | – | – | > 100 | > 100 | > 50 µM | 12 | 171 | mortality [1, 5]: 100%; inhibition in vivo at 40 mg/kg (C6 glioma cells; [6]): 73%; IC50 (PDGF-R (U1242); [4]): 1 µM; IC50 (PDGFR [2]): 1 µM
13 | Cc1cc2ncc(Nc3ccc(I)cc3)nc2cc1C [Compound G30] | 10 | 32 | 34 | > 100 | 32.5 µM | 2 | – | –
